Where a name gives a salt, the structure may show the parent alone.
melting point	SMILES
118 to 120 °C	CCCCc1ncc(CC(Cc2ccccc2)C(=O)O)n1Cc1ccccc1Cl (stereo not drawn) (as salt: hydrochloride) [Example 2, 3-[2-n-Butyl-1-{(2-chlorophenyl)methyl}-1H-imidazol-5-yl]-2-benzylpropanoic Acid]
178 to 181 °C	CCCSc1ncc(C[C@H](NC(=O)CCC)C(=O)O)n1Cc1ccccc1Cl [Example 1, 3-[(2-Chlorophenyl)methyl]-2-propylthio-N-butyrylhistidine]
254 to 255 °C	CCCCc1nc2cc(Br)cc(C(=O)O)c2n1Cc1ccccc1Cl [Example 4, 5-Bromo-2-n-butyl-1-(2-chlorophenyl)methyl-1H-benzimidazole-7-carboxylic Acid]

From patent publication US20020068759A1, “Medicament” (SmithKline Beecham plc, priority 1990, published 2002)
